Legend:
[1] = target: T1, LXYL-P1-2 (Lentinula edodes, UniProt G8GLP2, E529Q); test: X-ray crystallography, […] Å; type: binding; conditions: co-crystallised with XDT, cleaved in crystal; product complex with xylose; 0.1 M Hepes pH 7.5, 16 °C
T1 construct: expressed in Pichia pastoris GS115 from pPIC3.5K-lxyl-p1-2; KEX2 cleavage after Arg35, mature N-terminus Asp36; endoglycosidase-treated for crystals; tetramer

[2] = target: β-xylosidase/glucosidase LXYL-P1-2 (Lentinula edodes); test: SEC; molecular weight by gel filtration; conditions not given
[3] = target: β-xylosidase/glucosidase LXYL-P1-2 (Lentinula edodes); test: crystal structure; native crystal, endoglycosidase-treated protein at 10 mg/ml, hanging drop at 16 °C, 13% PEG3350, 0.1 M Tris-HCl pH 8.5, 0.2% MgCl2; 2.4 Å; tetramer in the asymmetric unit

CC(=O)O[C@@]12CO[C@@H]1C[C@H](O)[C@@]1(C)C(=O)[C@H](O)C3=C(C)[C@@H](OC(=O)[C@H](O)[C@@H](NC(=O)c4ccccc4)c4ccccc4)C[C@@](O)([C@@H](OC(=O)c4ccccc4)[C@H]21)C3(C)C [10-deacetyltaxol]
X-ray crystallography, 2.27 Å [1]: The electron density clearly shows the existence of xylose and DT

OC1OC[C@@H](O)[C@H](O)[C@H]1O (stereo partly shown) [xylose]
X-ray crystallography, 2.27 Å [1]: The electron density clearly shows the existence of xylose and DT

β-xylosidase/glucosidase LXYL-P1-2 (enzyme)
stoichiometry N [2]: 4 | stoichiometry N [3]: 4
